Among the data in ChEMBL document CHEMBL1122618, “Total chemical synthesis and antitumor evaluation of 4-demethoxy-10,10-dimethyldaunomycin” (1984) are T/C values, retold here.

For the assay, the system named is Mus musculus. Description: The compound was tested intraperitoneally against P388 acute lymphocytic leukemia in mice (dose 10 mg/kg). It is filed as functional. As to conditions: route intraperitoneal.

The molecule `CC(=O)[C@@]1(O)C[C@H](OC2CC(N)C(O)C(C)O2)c2c(O)c3c(c(O)c2C1(C)C)C(=O)c1ccccc1C3=O` (stereo partly specified) registered a T/C above 316.
